Source: the supplement of paper PMC4862054

Key:
Test in all cases: normalised viability (% of control), CellTiter-Blue; higher = more viable cells (about 100 = DMSO control)
Conditions in all cases: incubation time: 72 h
[1] = test system: CAL-148
Method: (§1)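 DSRT, CellTiter-Blue viability, 72 h incubation. Signal is normalised to DMSO and benzethonium chloride controls. Value is the normalised response at dose 8.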

[2] = test system: DU-4475
Method: as §1

[3] = test system: CAL-85-1
Method: as §1

[4] = test system: CAL-51
Method: as §1

[5] = test system: HDQ-P1
Method: as §1

[6] = test system: MDA-MB-453
Method: as §1

[7] = test system: CAL-148; remark: listed apart in the source
Method: (§2)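 DSRT, CellTiter-Blue viability, 72 h incubation. Signal is normalised to DMSO and benzethonium chloride controls. Value is the normalised response at dose 7.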

[8] = test system: DU-4475; remark: listed apart in the source
Method: as §2

[9] = test system: CAL-85-1; remark: listed apart in the source
Method: as §2

[10] = test system: CAL-51; remark: listed apart in the source
Method: as §2

[11] = test system: HDQ-P1; remark: listed apart in the source
Method: as §2

[12] = test system: MDA-MB-453; remark: listed apart in the source
Method: as §2

| SMILES | normalised viability [1] [%] | normalised viability [2] [%] | normalised viability [3] [%] | normalised viability [4] [%] | normalised viability [5] [%] | normalised viability [6] [%] | normalised viability [7] [%] | normalised viability [8] [%] | normalised viability [9] [%] | normalised viability [10] [%] | normalised viability [11] [%] | normalised viability [12] [%] |
| --- | --- | --- | --- | --- | --- | --- | --- | --- | --- | --- | --- | --- |
| Cc1ccc(C(=O)N(CCCN)[C@@H](c2oc3cc(Cl)ccc3c(=O)c2Cc2ccccc2)C(C)C)cc1 (300 nM) | 16.8 | 31.2 | 32.4 | 26.7 | 62.6 | 24.8 |  |  |  |  |  |  |
| NC(=O)Nc1cc(-c2cccc(F)c2)sc1C(=O)N[C@H]1CCCNC1 [AZD 7762] (100 nM) |  |  |  |  |  |  | 102 | 97.4 | 89.1 | 101 | 96.5 | 88.5 |
| NC(=O)Nc1cc(-c2cccc(F)c2)sc1C(=O)N[C@H]1CCCNC1 [AZD 7762] (300 nM) | 96.1 | 118 | 45.4 | 94.1 | 76.6 | 46.8 |  |  |  |  |  |  |
| CO[C@H]1/C=C\C=C(/C)C(=O)NC2=CC(=O)C(NCCN(C)C)=C(C[C@@H](C)C[C@H](OC)[C@H](O)[C@@H](C)/C=C(\C)[C@@H]1OC(N)=O)C2=O [Alvespimycin] (300 nM) | 14.8 | 1.07 | 24.4 | 18.2 | 33.1 | 8.24 |  |  |  |  |  |  |
| CCC1(c2ccc(N)cc2)CCC(=O)NC1=O (stereo not given) [Aminoglutethimide] (3000 nM) | 105 | 103 | 90.1 | 85.1 | 92.5 | 82.6 |  |  |  |  |  |  |
| NCC(=O)CCC(=O)O [Aminolevulinic acid] (1000 nM) |  |  |  |  |  |  | 95 | 95.6 | 97.4 | 106 | 95.2 | 90.5 |
| NCC(=O)CCC(=O)O [Aminolevulinic acid] (3000 nM) | 96.7 | 110 | 88.7 | 109 | 103 | 122 |  |  |  |  |  |  |
| CCN(CCCOc1ccc2c(Nc3cc(CC(=O)Nc4cccc(F)c4)[nH]n3)ncnc2c1)CCOP(=O)(O)O [Barasertib] (100 nM) |  |  |  |  |  |  | 23.7 | 77 | 77.2 | 60.6 | 76.5 | 55.3 |
| CCN(CCCOc1ccc2c(Nc3cc(CC(=O)Nc4cccc(F)c4)[nH]n3)ncnc2c1)CCOP(=O)(O)O [Barasertib] (300 nM) | 22.6 | 63.8 | 73.1 | 54 | 64.3 | 61 |  |  |  |  |  |  |
| Cn1c(CCCC(=O)O)nc2cc(N(CCCl)CCCl)ccc21 [Bendamustine] (3000 nM) | 101 | 105 | 93.8 | 112 | 101 | 113 |  |  |  |  |  |  |
| C=C(c1ccc(C(=O)O)cc1)c1cc2c(cc1C)C(C)(C)CCC2(C)C [Bexarotene] (3000 nM) | 79.8 | 97 | 99.2 | 92.8 | 77.3 | 84.2 |  |  |  |  |  |  |
| CC(=O)Nc1ccc(C(=O)Nc2ccccc2N)cc1 [CI-994] (100 nM) |  |  |  |  |  |  | 91.2 | 98.7 | 89.5 | 98.1 | 119 | 92 |
| CC(=O)Nc1ccc(C(=O)Nc2ccccc2N)cc1 [CI-994] (300 nM) | 100 | 90.5 | 110 | 99.5 | 130 | 96.1 |  |  |  |  |  |  |
| COc1cc2nccc(Oc3ccc(NC(=O)C4(C(=O)Nc5ccc(F)cc5)CC4)cc3)c2cc1OC [Cabozantinib] (300 nM) | 94.7 | 103 | 86.3 | 104 | 72.6 | 112 |  |  |  |  |  |  |
| N.N.[Cl][Pt][Cl] [Cisplatin] (3000 nM) | 101 | 96.8 | 99.1 | 106 | 104 | 100 |  |  |  |  |  |  |
| C[C@@H](Oc1cc(-c2cnn(C3CCNCC3)c2)cnc1N)c1c(Cl)ccc(F)c1Cl [Crizotinib] (3000 nM) | 76.8 | 78.7 | 66.1 | 62.9 | 86.7 | 57.3 |  |  |  |  |  |  |
| CN(C)/N=N/c1[nH]cnc1C(N)=O [Dacarbazine] (3000 nM) | 94.8 | 101 | 87.3 | 97.2 | 95.5 | 95.7 |  |  |  |  |  |  |
| Cc1ccc(-n2nc(C(C)(C)C)cc2NC(=O)Nc2ccc(OCCN3CCOCC3)c3ccccc23)cc1 [Doramapimod] (3000 nM) | 93.1 | 114 | 76 | 102 | 75.8 | 96.8 |  |  |  |  |  |  |
| C#Cc1cccc(Nc2ncnc3cc(OCCOC)c(OCCOC)cc23)c1 [Erlotinib] (3000 nM) | 66.9 | 108 | 49.8 | 95.9 | 75.4 | 73.5 |  |  |  |  |  |  |
| COc1cc([C@@H]2c3cc4c(cc3[C@@H](O[C@@H]3O[C@@H]5CO[C@@H](C)O[C@H]5[C@H](O)[C@H]3O)[C@H]3COC(=O)[C@H]23)OCO4)cc(OC)c1O [Etoposide] (3000 nM) | 41.3 | 3.63 | 76.9 | 26.4 | 78.7 | 89 |  |  |  |  |  |  |
